Experimental data taken from PMC4909640 (EBioMedicine, 2016).

Tested on: enteroendocrine proglucagon-containing cells (L-cells)
Settings: perfused mouse proximal small intestine, n = 4; basal to peak; P < 0.001

SMILES: [Cl-].[K+] [KCl]
- increase of GLP-1 secretion during infusion: ~ 10 fold
- increase of oxyntomodulin secretion during infusion: ~ 9 fold
